Assay results published in US9750253B2, “Pesticidally active substituted pyridyl carboxamides” (Syngenta Participations AG, priority 2013, dated 2017).

Legend:
Type in all cases: in vivo
[1] = tested on: Rhopalosiphum padi (Bird Cherry Oat Aphid); experiment: Activity against Rhopalosiphum padi, barley, seed treatment, mixed population, systemic/feeding activity, preventive
Procedure: Example B5: Activity Against Rhopalosiphum padi (Bird Cherry Oat Aphid, Barley) (Seed Treatment) Mixed Population, Systemic/Feeding Activity, Preventive
The barley seeds were coated with the active ingredients as described in the formulation example F9 above.
A treated barley seed was sown in a 350 ml pot filled with soil. Two weeks after sowing the barley seedling was infested with an aphid population of mixed stages. After an incubation period of seven days the grade of efficacy was estimated and expressed in percentage.
Activity against Rhopalosiphum padi (Bird Cherry Oat Aphid, barley) (seed treatment) mixed population, systemic/feeding activity, preventive: […]

[2] = tested on: Myzus persicae (Green Peach Aphid); experiment: whole plant or invertebrate; details: foliar, 144 h, sunflower leaf discs sprayed, 6 days incubation
Procedure: Example B1: Activity Against Myzus persicae (Green Peach Aphid) (Mixed Population, Feeding/Residual Contact Activity, Preventive)
Sunflower leaf discs were placed on agar in a 24-well microtiter plate and sprayed with test solutions. After drying, the leaf discs were infested with an aphid population of mixed ages. After an incubation period of 6 days, samples were checked for mortality and special effects (e.g. phytotoxicity).

[3] = tested on: Myzus persicae (Green Peach Aphid); experiment: whole plant or invertebrate; details: 144 h, pea seedlings, roots in test solution, 6 days after introduction
Description: Example B2: Activity Against Myzus persicae (Green Peach Aphid) (Mixed Population, Systemic/Feeding Activity, Curative)
Pea seedlings, infested with an aphid population of mixed ages, were placed with the roots directly in the test solutions. 6 days after introduction, samples were checked for mortality and special effects on the plant.

Bemisia tabaci = experiment: whole plant or invertebrate; details: foliar, 168 h, cotton leaf discs sprayed, adult white flies, 7 DAT
Procedure: Example B3: Activity Against Bemisia tabaci, (Adults on Cotton, Contact, Preventative)
Cotton leaf discs are placed on agar in a 24-well microtiter plate and sprayed with test solutions. After drying, the leaf discs are infested with adult white flies. After an incubation period of 7 DAT, samples are checked for mortality and special effects (e.g. phytotoxicity).

Row | SMILES | Mortality (%) ([1]; 0.01 mg ai/seed) | Mortality (%) ([1]; 0.03 mg ai/seed) | Mortality (%) ([1]; 0.1 mg ai/seed) | Mortality (%) ([1]; 0.3 mg ai/seed) | Mortality (%) ([1]; 1 mg ai/seed) | mortality at 200 ppm [2] [%] | mortality at 24 ppm [3] [%] | mortality at 200 ppm (Bemisia tabaci) [%]
1 | Cc1c(C(=O)N(C)c2cccnc2)cnn1-c1ncccc1Cl [Compound 877, reference compound] | 0 | 0 | 42 | 63 | 84 |  |  | 
2 | Cc1cccnc1-n1ncc(C(=O)N(C)c2cccnc2)c1C [Compound 1.001, 1-(3-methylpyridin-2-yl)-5-methyl-1H-pyrazole-4-carboxylic acid methyl-pyridin-3-yl-amide] | 70 | 85 | 95 | 99 | 99 | ≥ 80 | > 80 | > 80
3 | Cc1cccnc1-n1ncc(C(=O)N(C)c2ccc[n+]([O-])c2)c1C [Compound 1.079, 1-(3-methylpyridin-2-yl)-5-methyl-1H-pyrazole-4-carboxylic acid methyl-pyridin-N-oxide-3-yl-amide] |  |  |  |  |  | ≥ 80 | > 80 | 
4 | Cc1cc(C#N)cnc1-n1ncc(C(=O)N(C)c2cccnc2)c1C [Compound 1.004, 1-(5-cyano-3-methyl-2-pyridyl)-N,5-dimethyl-N-(3-pyridyl)pyrazole-4-carboxamide] |  |  |  |  |  | ≥ 80 | > 80 | 
5 | CCc1cccnc1-n1ncc(C(=O)N(C)c2cccnc2)c1C [Compound 1.025, 1-(3-ethyl-2-pyridyl)-N,5-dimethyl-N-(3-pyridyl)pyrazole-4-carboxamide] |  |  |  |  |  | ≥ 80 |  | 
6 | Cc1ccc(Cl)nc1-n1ncc(C(=O)N(C)c2ccnnc2)c1C [Compound 1.230, 1-(6-chloro-3-methyl-2-pyridyl)-N,5-dimethyl-N-pyridazin-4-yl-pyrazole-4-carboxamide] |  |  |  |  |  | ≥ 80 |  | > 80
7 | Cc1cc(Br)cnc1-n1ncc(C(=O)N(C)c2cccnc2)c1C [Compound 1.003, 1-(5-bromo-3-methyl-2-pyridyl)-N,5-dimethyl-N-(3-pyridyl)pyrazole-4-carboxamide] |  |  |  |  |  | ≥ 80 |  | 
